Measurements from US9206173B2, “Heterocyclic compounds for the treatment of stress-related conditions” (OTSUKA PHARMACEUTICAL CO., LTD., priority 2009, dated 2015).
Where a name gives a salt, the structure may show the parent alone.

Biological target: human GPR10 (Homo sapiens (Human), UniProt P49683)
Test: Inhibitory activity on binding of [3H]-PrRP to GPR10 (HEK 293 cell membrane fraction)
Settings: [3H]-PrRP 1 nM, human GPR10-expressing HEK 293 cell membrane fraction; Ki from IC50 by Cheng-Prussoff formula
Procedure: Inhibitory Activity on Binding of [^3H]-PrRP to GPR10
Human GPR10 receptor expressing human embryonic kidney cells, HEK 293 cells, were cultured in Dulbecco's Modified Eagle's medium supplemented with 10% fetal bovine serum and 1% penicilline-streptmycin at 37° C., in 5% carbon dioxide gas conditions. The medium was removed and the cells were recovered in a phosphate buffer to prepare a cell suspension. The cell suspension was homogenated on ice by an ultrasonic cell homogenizer (Microson™ type XL200) and centrifuged at 40,000 g for 10 minutes at 4° C. After the supernatant was discarded, Buffer A (20 mM HEPES, 10 mM EDTA, 1 μl/ml protease inhibiting cocktail, pH 7.4) was added to the pellet. The pellet was suspended by the ultrasonic cell homogenizer, then the suspension was centrifuged at 40,000 g, for 10 minutes at 4° C. After this operation was repeated once again, the supernatant was discarded, Buffer B (20 mM HEPES, 0.1 mM EDTA, pH 7.4) was added to the pellet, and the pellet was suspended by the ultrasonic homogenizer. This was stored at a freezer of −80° C. as a cell membrane fraction until use in a binding test.
To each well of a 96-well plate, 150 μl of assay buffer (20 mM HEPES, 10 mM EDTA, 1 μl/ml protease inhibiting agent cocktail, pH 7.4), 20 μl of cell membrane fraction, 10 μl of test compound and [^3H]-PrRP (final concentration 1 nM) were added and incubated at room temperature for 90 minutes. After completion of the reaction, using a cell harvester, the cell-membrane fraction sample product was filtered under aspiration by a glass fiber filter plate (Unifilter; GF/B) previously treated with 0.5% polyethylene imine. The filter was washed with a 50 mM Tris hydrochloric acid buffer (pH 7.4) three times. After the filter was dried in a dryer (50° C.) for about 3 hours, 40 μl of liquid scintillation cocktail (MicroScint-O) was added to each well and radio activity was measured by a scintillation counter (Packard Topcount). The radio activity in the presence of an excessive amount of non-labeled PrRP (final concentration: 100 nM) was regarded as non-specific binding.
The binding inhibition rate was calculated based on calculating formula: 100−(radio activity when a compound is added−radio activity of non-specific binding)÷(radio activity when a solvent is added−radio activity of non-specific binding)×100.
An IC50 value was calculated based on the concentration dependent reaction using a non-linear analysis program and a Ki value was calculated using Cheng-Prussoff formula.

Chain of human GPR10 (P49683 whole entry): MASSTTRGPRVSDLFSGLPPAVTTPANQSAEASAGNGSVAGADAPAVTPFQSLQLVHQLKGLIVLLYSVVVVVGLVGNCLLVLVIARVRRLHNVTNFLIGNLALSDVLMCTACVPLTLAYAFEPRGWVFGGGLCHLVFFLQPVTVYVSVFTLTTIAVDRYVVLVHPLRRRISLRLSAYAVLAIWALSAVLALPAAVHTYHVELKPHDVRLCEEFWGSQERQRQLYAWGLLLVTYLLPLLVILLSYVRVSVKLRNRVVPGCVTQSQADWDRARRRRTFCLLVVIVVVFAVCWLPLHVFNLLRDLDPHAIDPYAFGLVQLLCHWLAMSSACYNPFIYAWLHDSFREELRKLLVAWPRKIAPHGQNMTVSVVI

SMILES	Ki
COn1c(N[C@H](c2ccc(Cl)cc2)C(C)C)nc2c(c1=O)CN(C(=O)c1ccc(-n3ccnc3)cc1)CC2 [Example 2481, 2-[(S)-1-(4-chlorophenyl)-2-methylpropylamino]-6-(4-imidazol-1-ylbenzoyl)-3-methoxy-5,6,7,8-tetrahydro-3H-pyrido[4,3-d]pyrimidin-4-one]	31 nM
CC(C)COn1c(N[C@@H](C)c2ccc(C(F)(F)F)cc2)nc2c(c1=O)CN(C(=O)c1ccc(C#N)cc1F)CC2 [Example 2416, 3-fluoro-4-{3-isobutoxy-4-oxo-2-[(S)-1-(4-trifluoromethylphenyl)ethylamino]-3,5,7,8-tetrahydro-4H-pyrido[4,3-d]pyrimidine-6-carbonyl}benzonitrile]	33 nM
COn1c(NCc2ccc(C(F)(F)F)cc2)nc2c(c1=O)CN(C(=O)c1ccc(Cl)cc1)CC2 [Example 2477, 6-(4-chlorobenzoyl)-3-methoxy-2-(4-trifluoromethylbenzylamino)-5,6,7,8-tetrahydro-3H-pyrido[4,3-d]pyrimidin-4-one hydrochloride]	39 nM
C#CCCn1c(N[C@@H](C)c2ccc(C(F)(F)F)cc2)nc2c(c1=O)CN(C(=O)c1ccc(-c3cnco3)cc1)CC2 [Example 2438, 3-(3-butynyl)-6-(4-oxazol-5-ylbenzoyl)-2-[(S)-1-(4-trifluoromethylphenyl)ethylamino]-5,6,7,8-tetrahydro-3H-pyrido[4,3-d]pyrimidin-4-one]	26 nM
CCOc1ccc(CNc2nc3c(c(=O)n2OC)CN(C(=O)c2ccc(C#N)cc2F)CC3)cc1 [Example 2490, 4-[2-(4-ethoxybenzylamino)-3-methoxy-4-oxo-3,5,7,8-tetrahydro-4H-pyrido[4,3-d]pyrimidine-6-carbonyl]-3-fluorobenzonitrile]	237 nM
COn1c(N[C@@H](C)C2CCCCC2)nc2c(c1=O)CN(C(=O)c1ccc(Cl)cc1)CC2 [Example 2470, 6-(4-chlorobenzoyl)-2-((S)-1-cyclohexyl-ethylamino)-3-methoxy-5,6,7,8-tetrahydro-3H-pyrido[4,3-d]pyrimidin-4-one]	108 nM
CC#CCn1c(N[C@@H](C)c2ccc(C(F)(F)F)cc2)nc2c(c1=O)CN(C(=O)c1ccc3c(c1)OCO3)CC2 [Example 2444, 6-(benzo[1,3]dioxole-5-carbonyl)-3-(2-butynyl)-2-[(S)-1-(4-trifluoromethylphenyl)ethylamino]-5,6,7,8-tetrahydro-3H-pyrido[4,3-d]pyrimidin-4-one]	42 nM
COn1c(N[C@H](c2ccc(Cl)cc2)C(C)C)nc2c(c1=O)CN(C(=O)c1ccc3c(c1)OCCO3)CC2 [Example 2479, 2-[(S)-1-(4-chlorophenyl)-2-methylpropylamino]-6-(2,3-dihydrobenzo[1,4]dioxine-6-carbonyl)-3-methoxy-5,6,7,8-tetrahydro-3H-pyrido[4,3-d]pyrimidin-4-one]	42 nM
C[C@H](Nc1nc2c(c(=O)n1N(C)C)CN(C(=O)COc1ccc(Cl)cc1)CC2)c1ccc(C(F)(F)F)cc1 [Example 2442, 6-[2-(4-chlorophenoxy)acetyl]-3-dimethylamino-2-[(S)-1-(4-trifluoromethylphenyl)ethylamino]-5,6,7,8-tetrahydro-3H-pyrido[4,3-d]pyrimidin-4-one hydrochloride]	140 nM
COn1c(NC(CCC(F)(F)F)c2ccc(Cl)cc2)nc2c(c1=O)CN(C(=O)c1ccc(Cl)cc1)CC2 (centres unmarked) [Example 2450, 6-(4-chlorobenzoyl)-2-[1-(4-chlorophenyl)-4,4,4-trifluorobutylamino]-3-methoxy-5,6,7,8-tetrahydro-3H-pyrido[4,3-d]pyrimidin-4-one]	121 nM
COn1c(N[C@H](c2ccc(Cl)cc2)C(C)C)nc2c(c1=O)CN(C(=O)c1cc3ccccc3cn1)CC2 [Example 2489, 2-[(S)-1-(4-chlorophenyl)-2-methylpropylamino]-6-(isoquinoline-3-carbonyl)-3-methoxy-5,6,7,8-tetrahydro-3H-pyrido[4,3-d]pyrimidin-4-one]	26 nM
COn1c(N2CCCC2c2ccc(C(F)(F)F)cc2)nc2c(c1=O)CN(C(=O)c1ccc(Cl)cc1)CC2 (centres unmarked) [Example 2475, 6-(4-chlorobenzoyl)-3-methoxy-2-[2-(4-trifluoromethylphenyl)pyrrolidin-1-yl]-5,6,7,8-tetrahydro-3H-pyrido[4,3-d]pyrimidin-4-one]	34 nM
C#CCCn1c(N[C@@H](C)c2ccc(C(F)(F)F)cc2)nc2c(c1=O)CN(C(=O)c1ccc(C(=O)N(C)C)cc1)CC2 [Example 2494, 4-{3-(3-butynyl)-4-oxo-2-[(S)-1-(4-trifluoromethylphenyl)ethylamino]-3,5,7,8-tetrahydro-4H-pyrido[4,3-d]pyrimidine-6-carbonyl}-N,N-dimethylbenzamide]	201 nM

Next, values leading:

Ki	SMILES
13 nM	COn1c(N[C@H](c2ccc(Cl)cc2)C(C)C)nc2c(c1=O)CN(C(=O)c1cc3ccccn3n1)CC2 [Example 2483, 2-[(S)-1-(4-chlorophenyl)-2-methylpropylamino]-3-methoxy-6-(pyrazolo[1,5-a]pyridine-2-carbonyl)-5,6,7,8-tetrahydro-3H-pyrido[4,3-d]pyrimidin-4-one]
14 nM	COc1ccc2oc(C(=O)N3CCc4nc(N[C@@H](C)c5ccc(C(F)(F)F)cc5)n(OC)c(=O)c4C3)cc2c1 [Example 2460, 3-methoxy-6-(5-methoxybenzofuran-2-carbonyl)-2-[(S)-1-(4-trifluoromethylphenyl)ethylamino]-5,6,7,8-tetrahydro-3H-pyrido[4,3-d]pyrimidin-4-one]
15 nM	COn1c(N[C@@H](C)c2ccc(C(F)(F)F)cc2)nc2c(c1=O)CN(C(=O)c1cc3ccccc3s1)CC2 [Example 2474, 6-(benzo[b]thiophene-2-carbonyl)-3-methoxy-2-[(S)-1-(4-trifluoromethylphenyl)ethylamino]-5,6,7,8-tetrahydro-3H-pyrido[4,3-d]pyrimidin-4-one]
6 nM	C=Cc1ccc(C(=O)N2CCc3nc(N[C@@H](C)c4ccc(C(F)(F)F)cc4)n(OC)c(=O)c3C2)cc1 [Example 2456, 3-methoxy-2-[(S)-1-(4-trifluoromethylphenyl)ethylamino]-6-(4-vinylbenzoyl)-5,6,7,8-tetrahydro-3H-pyrido[4,3-d]pyrimidin-4-one]
20 nM	COn1c(N[C@@H](C)c2ccc(C(F)(F)F)cc2)nc2c(c1=O)CN(C(=O)c1cc(-c3cccs3)n(C)n1)CC2 [Example 2464, 3-methoxy-6-(1-methyl-5-thiophen-2-yl-1H-pyrazole-3-carbonyl)-2-[(S)-1-(4-trifluoromethylphenyl)ethylamino]-5,6,7,8-tetrahydro-3H-pyrido[4,3-d]pyrimidin-4-one]
9 nM	C#CCn1c(N[C@@H](C)c2ccc(C(F)(F)F)cc2)nc2c(c1=O)CN(C(=O)c1cccc(C#N)c1)CC2 [Example 2476, 3-{4-oxo-3-(2-propynyl)-2-[(S)-1-(4-trifluoromethylphenyl)ethylamino]-3,5,7,8-tetrahydro-4H-pyrido[4,3-d]pyrimidine-6-carbonyl}benzonitrile]
9 nM	C#CCn1c(N[C@@H](C)c2ccc(C(F)(F)F)cc2)nc2c(c1=O)CN(C(=O)c1c(F)cccc1F)CC2 [Example 2478, 6-(2,6-difluorobenzoyl)-3-(2-propynyl)-2-[(S)-1-(4-trifluoromethylphenyl)ethylamino]-5,6,7,8-tetrahydro-3H-pyrido[4,3-d]pyrimidin-4-one]
8 nM	CC[C@H](Nc1nc2c(c(=O)n1OC)CN(C(=O)c1ccc(C#N)cc1F)CC2)c1ccc(C(F)(F)F)cc1 [Example 2482, 3-fluoro-4-{3-methoxy-4-oxo-2-[(S)-1-(4-trifluoromethylphenyl)propylamino]-3,5,7,8-tetrahydro-4H-pyrido[4,3-d]pyrimidine-6-carbonyl}benzonitrile]
6 nM	COn1c(N[C@@H](C)c2ccc(C(F)(F)F)cc2)nc2c(c1=O)CN(C(=O)COc1ccc(C#N)cc1)CC2 [Example 2468, 4-(2-{3-methoxy-4-oxo-2-[(S)-1-(4-trifluoromethylphenyl)ethylamino]-3,5,7,8-tetrahydro-4H-pyrido[4,3-d]pyrimidin-6-yl}-2-oxo-ethoxy)benzonitrile]
9 nM	COn1c(N[C@@H](C)c2ccc(C(F)(F)F)cc2)nc2c(c1=O)CN(C(=O)c1cc3cccnc3s1)CC2 [Example 2415, 3-methoxy-6-(thieno[2,3-b]pyridine-2-carbonyl)-2-[(S)-1-(4-trifluoromethylphenyl)ethylamino]-5,6,7,8-tetrahydro-3H-pyrido[4,3-d]pyrimidin-4-one]
